The source of these data is patent US20210100786A1, “Pharmaceutical Formulations” (CIPLA LIMITED, priority 2018, published 2021).

Data set [1] relates to Caco-2 cells.
Data set [2] relates to Caco-2 cells. Particulars: cited from earlier work.

For `COc1nc2ccc(Br)cc2cc1[C@@H](c1ccccc1)[C@@](O)(CCN(C)C)c1cccc2ccccc12` [Bedaquiline], in the data set on Caco-2 cells [1], the absorption result is “increased” and the “efflux ratio (Papp B-A/Papp A-B)” value is “decreasing the efflux ratio”. The P-gp substrate status entry with Caco-2 cells [2] is listed as “known P-gp substrate”.
